Measurements from US7772252B2, “Heterocyclic substituted carbonyl derivatives and their use as dopamine D3 receptor ligands” (Aventis Pharmaceuticals Inc., priority 2001, dated 2010).

The compounds below were run against T1, cloned human dopamine D3 receptors (Homo sapiens, UniProt P35462) (assay: [N-Methyl-3H]Spiroperidol binding to cloned human dopamine D3 receptors). Details: read-out: D3 Ki.
T1 construct: expressed in transfected cells; membrane homogenate
How it was run: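 Radioligand displacement with [N-methyl-3H]spiroperidol was run on membranes from a high-expressing CHO clone carrying human D3. Membranes were prepared in 10% DMSO and stored at −80° C.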

T1 sequence (P35462 whole entry): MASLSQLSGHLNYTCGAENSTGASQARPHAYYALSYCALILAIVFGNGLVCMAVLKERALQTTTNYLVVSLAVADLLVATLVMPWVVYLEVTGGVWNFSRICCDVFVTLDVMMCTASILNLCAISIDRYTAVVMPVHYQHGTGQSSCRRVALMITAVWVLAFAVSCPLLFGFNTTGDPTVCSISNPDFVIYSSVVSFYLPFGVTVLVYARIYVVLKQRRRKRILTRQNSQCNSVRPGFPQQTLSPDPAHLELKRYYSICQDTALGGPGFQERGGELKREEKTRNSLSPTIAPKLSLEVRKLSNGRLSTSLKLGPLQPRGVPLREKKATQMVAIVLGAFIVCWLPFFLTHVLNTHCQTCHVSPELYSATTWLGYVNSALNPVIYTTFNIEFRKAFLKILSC

| Ki [nM] | SMILES |
| --- | --- |
| 52.9 | COc1ccc2c(c1)c(N1CCN(C[C@@H]3C[C@H]3C(=O)N3CCN(C(C)C)CC3)CC1)nn2C [compound 833122] |
| 26.3 | COc1ccc2c(c1)c(N1CCN(C[C@@H]3C[C@H]3C(=O)N3CCC(n4ccnc4)CC3)CC1)nn2C [compound 833123] |
| 26.8 | COc1ccc2c(c1)c(N1CCN(C[C@@H]3C[C@H]3C(=O)N3CCN(Cc4ccc(Cl)cc4)CC3)CC1)nn2C [compound 833124] |
| 70.8 | COc1ccc2c(c1)c(N1CCN(C[C@@H]3C[C@H]3C(=O)N3CCN(Cc4ccc(C)cc4)CC3)CC1)nn2C [compound 833125] |
| 79.6 | CC(C)N1CCN(C(=O)[C@@H]2C[C@H]2CN2CCC(c3noc4ccsc34)CC2)CC1 [compound 833127] |
| 26.7 | O=C([C@@H]1C[C@H]1CN1CCC(c2noc3ccsc23)CC1)N1CCN(Cc2ccc(Cl)cc2)CC1 [compound 833128] |
| 95.3 | CC(C)(C)c1ccc(CCNC(=O)[C@@H]2C[C@H]2CN2CCC(c3noc4ccsc34)CC2)cc1 [compound 833129] |
| 8.85 | O=C(NCCc1cccc(C(F)(F)F)c1)[C@@H]1C[C@H]1CN1CCC(c2noc3ccsc23)CC1 [compound 833130] |
| 16.8 | O=C([C@@H]1C[C@H]1CN1CCC(c2noc3ccsc23)CC1)N1CCN(CCCc2ccccc2)CC1 [compound 833131] |
| 108 | O=C([C@@H]1C[C@H]1CN1CCC(c2noc3ccsc23)CC1)N1CCN(Cc2ccc(F)cc2)CC1 [compound 833132] |
| 114 | COc1ccc(CN2CCN(C(=O)[C@@H]3C[C@H]3CN3CCC(c4noc5ccsc45)CC3)CC2)cc1 [compound 833133] |
| 14.3 | COc1ccc2c(c1)c(N1CCN(C[C@@H]3C[C@H]3C(=O)NCC3CCNCC3)CC1)nn2C [compound 833136] |
| 2.09 | O=C(NC1CCN(Cc2ccc(C(F)(F)F)cc2)CC1)[C@@H]1C[C@H]1CN1CCC(c2noc3ccsc23)CC1 [compound 833160] |
| 17.5 | O=C([C@@H]1C[C@H]1CN1CCC(c2noc3ccsc23)CC1)N1CCN(CCc2cccs2)CC1 [compound 833163] |
| 52.5 | O=C([C@@H]1C[C@H]1CN1CCC(c2noc3ccsc23)CC1)N1CCC(n2ccnc2)CC1 [compound 833164] |
| 1.72 | O=C(NC1CCN(Cc2cc(F)cc(F)c2)CC1)[C@@H]1C[C@H]1CN1CCC(c2noc3ccsc23)CC1 [compound 833166] |
| 1.57 | O=C(NC1CCN(Cc2ccc(F)cc2F)CC1)[C@@H]1C[C@H]1CN1CCC(c2noc3ccsc23)CC1 [compound 833167] |
| 3.11 | O=C(NC1CCN(Cc2cc(F)ccc2F)CC1)[C@@H]1C[C@H]1CN1CCC(c2noc3ccsc23)CC1 [compound 833168] |
| 45.4 | COc1ccc2c(c1)c(N1CCN(C[C@@H]3C[C@H]3C(=O)NCC3CCN(C(C)=O)CC3)CC1)nn2C [compound 833197] |
| 16.7 | CC(C)(C)OC(=O)N1CCN(CCNC(=O)[C@@H]2C[C@H]2CN2CCN(c3csc4cc(C(F)(F)F)ccc34)CC2)CC1 [compound 833277] |
| 7.04 | CC(C)(C)OC(=O)NCCN1CCN(C(=O)[C@@H]2C[C@H]2CN2CCN(c3csc4cc(C(F)(F)F)ccc34)CC2)CC1 [compound 833278] |
| 12.8 | O=C(NCCN1CCNCC1)[C@@H]1C[C@H]1CN1CCN(c2csc3cc(C(F)(F)F)ccc23)CC1 [compound 833322] |
| 3.46 | NCCN1CCN(C(=O)[C@@H]2C[C@H]2CN2CCN(c3csc4cc(C(F)(F)F)ccc34)CC2)CC1 [compound 833323] |
| 8.11 | O=C(NCCCn1ccnc1)[C@@H]1C[C@H]1CN1CCN(c2nn(-c3ccc(OC(F)(F)F)cc3)c3ccsc23)CC1 [compound 833333] |
| 166 | COc1c(F)ccc2c(C3CCN(CCC4(C(=O)NCCCN5CCCCC5)CC4)CC3)noc12 [compound 833365] |

| SMILES | Ki [nM] |
| --- | --- |
| CC(C)(C)C(=O)O[C@H]1CC[C@H](NC(=O)[C@@H]2C[C@H]2CN2CCC(c3csc4c(C(F)(F)F)cccc34)CC2)CC1 [compound 833151] | 11.2 |
| O=C(NCCCN1CCCCC1)[C@@H]1C[C@H]1CN1CCC(c2nn(-c3ccc(F)cc3)c3cc(F)ccc23)CC1 [compound 833157] | 43.9 |
